# In the supplement of paper PMC10307832:
# What was measured:
# Assay in all cases: relative viability (nuclei count vs DMSO), 5 days (fraction); higher = more cells survive
# Quizartinib + Foretinib = compound: CC(C)(C)c1cc(NC(=O)Nc2ccc(-c3cn4c(n3)sc3cc(OCCN5CCOCC5)ccc34)cc2)no1 [Quizartinib] + COc1cc2c(Oc3ccc(NC(=O)C4(C(=O)Nc5ccc(F)cc5)CC4)cc3F)ccnc2cc1OCCCN1CCOCC1 [Foretinib] (partner 0.25 µM)
# Summary of the method: (§1)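 One day after seeding in 1536-well plates, lung cancer cell lines were dosed by pin tool. Dosing was either single-drug or a fixed anchor-drug dose plus five library-drug doses (not always all listed) in √10 steps. After 5 days, nuclei were stained in one fix-and-stain step and counted on 4× images, and relative viability is the nuclei count of treated wells over that of vehicle wells, given as the median of duplicate plates.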
# Quizartinib + Lapatinib = compound: CC(C)(C)c1cc(NC(=O)Nc2ccc(-c3cn4c(n3)sc3cc(OCCN5CCOCC5)ccc34)cc2)no1 [Quizartinib] + CS(=O)(=O)CCNCc1ccc(-c2ccc3ncnc(Nc4ccc(OCc5cccc(F)c5)c(Cl)c4)c3c2)o1 [Lapatinib] (partner 2 µM)
# Summary of the method: as §1
# YM155 + OSI-027 = compound: COCC[n+]1c2c(n(Cc3cnccn3)c1C)C(=O)c1ccccc1C2=O [YM155] + COc1cccc2cc(-c3nc([C@H]4CC[C@H](C(=O)O)CC4)n4ncnc(N)c34)[nH]c12 [OSI-027] (partner 0.5 µM)
# Summary of the method: as §1
# YM155 + AZD7762 = compound: COCC[n+]1c2c(n(Cc3cnccn3)c1C)C(=O)c1ccccc1C2=O [YM155] + NC(=O)Nc1cc(-c2cccc(F)c2)sc1C(=O)N[C@H]1CCCNC1 [AZD7762] (partner 0.2 µM)
# Summary of the method: as §1
Cell Line,relative viability (Quizartinib + Foretinib; first compound 0.001 µM),relative viability (Quizartinib + Foretinib; first compound 0.003162 µM),relative viability (Quizartinib + Foretinib; first compound 0.01 µM),relative viability (Quizartinib + Foretinib; first compound 0.03162 µM),relative viability (Quizartinib + Foretinib; first compound 0.1 µM),relative viability (Quizartinib + Lapatinib; first compound 0.001 µM),relative viability (Quizartinib + Lapatinib; first compound 0.003162 µM),relative viability (Quizartinib + Lapatinib; first compound 0.01 µM),relative viability (Quizartinib + Lapatinib; first compound 0.03162 µM),relative viability (Quizartinib + Lapatinib; first compound 0.1 µM),relative viability (YM155 + OSI-027; first compound 0.002 µM),relative viability (YM155 + OSI-027; first compound 0.006325 µM),relative viability (YM155 + OSI-027; first compound 0.02 µM),relative viability (YM155 + OSI-027; first compound 0.06325 µM),relative viability (YM155 + AZD7762; first compound 0.002 µM),relative viability (YM155 + AZD7762; first compound 0.006325 µM),relative viability (YM155 + AZD7762; first compound 0.02 µM),relative viability (YM155 + AZD7762; first compound 0.06325 µM)
201T,1.07,0.998,1.09,0.942,1.01,1.09,1.04,1.07,1.06,1.05,0.629,0.696,0.751,0.754,0.592,0.639,0.561,0.698
A549,0.949,0.975,1.08,0.818,1.05,0.919,0.912,0.998,0.59,0.99,–,–,–,–,–,–,–,–
A-427,–,0.988,0.97,1.04,0.957,0.714,0.938,1.04,0.998,0.986,0.478,0.562,0.597,0.458,0.741,0.793,0.752,0.312
ABC-1,0.64,0.993,1.1,0.929,0.846,1.11,–,1.17,1.02,1.29,0.491,0.477,0.282,0.154,0.66,0.84,0.47,0.195
BEN,0.672,0.772,0.648,0.424,0.672,0.473,0.661,0.579,0.667,0.747,0.268,0.311,0.304,0.29,0.538,0.625,0.769,0.692
CAL-12T,0.781,1.1,1.14,0.935,1.22,0.587,0.716,0.667,0.687,0.795,0.657,0.619,0.746,0.529,0.621,0.715,0.672,0.534
COR-L23,0.979,0.856,1.06,0.973,1.02,1.03,0.856,1.14,0.613,0.928,0.692,0.735,0.488,0.132,–,–,–,–
COR-L 105,0.775,0.986,1.03,1,0.964,0.362,0.388,0.376,0.409,0.352,0.574,0.694,0.762,0.54,–,–,–,–
Calu-6,0.74,0.779,0.972,0.88,0.899,1.02,0.986,1.15,0.815,1.09,–,–,–,–,–,–,–,–
ChaGo-K-1,0.974,0.911,0.959,0.866,0.949,–,–,–,–,–,0.474,0.536,0.549,0.662,0.847,0.822,0.915,0.821
EBC-1,0.0847,0.105,0.0907,0.133,0.121,0.23,0.209,0.202,0.207,0.197,–,–,–,–,–,–,–,–
EKVX,0.201,0.739,0.749,0.852,0.833,0.188,0.223,0.204,0.202,0.407,0.683,0.759,0.683,0.687,0.591,0.723,0.747,0.483
EMC-BAC-2,0.938,1.02,1.14,–,1.01,0.809,0.94,0.823,0.671,0.946,0.388,0.364,0.374,0.382,1.04,1.15,1.07,0.785
EPLC-272H,0.535,0.685,0.75,0.682,0.669,0.681,1.07,0.834,0.923,1.34,0.287,0.312,0.286,0.251,0.227,0.296,0.196,0.253
H3255,0.874,0.84,1.14,1.07,0.763,0.264,0.238,0.212,0.28,0.241,0.577,0.56,0.652,0.569,0.886,0.913,1.05,0.796
HARA,–,0.832,0.952,0.942,0.913,0.748,0.551,0.827,1.08,0.736,0.495,0.51,0.792,0.505,–,0.542,0.521,0.499
HCC-15,–,0.978,0.979,–,0.952,0.652,0.795,0.859,0.791,0.767,0.693,0.758,0.721,0.534,0.661,1.28,1.19,1.17
HCC-44,–,–,–,–,–,0.776,1.02,0.991,1.09,0.938,0.45,0.608,0.58,0.304,1.04,1.06,1.07,0.976
HCC-78,0.53,0.57,0.573,0.513,0.558,0.869,0.901,0.576,0.702,0.703,0.361,0.379,0.385,0.383,0.612,0.779,0.755,0.629
HCC-366,0.884,0.921,0.992,0.914,0.946,0.931,0.992,1.06,0.897,1,1.08,0.767,1.01,0.945,0.315,0.28,0.327,0.273
